The values below come from patent publication EP2108650A1, “Novel aureothin derivatives” (Leibniz-Institut für Naturstoff-Forschung und …, priority 2008, dated 2009).

Assay [1] has as its system human K-562 leukemia cells. The assay can be described thus: Antiproliferative assay on K-562 cells (CellTiter-Blue viability readout). It counts as cell-based. Conditions: for pIC50 / IC50: Homo sapiens; for increase of antiproliferative activity compared to aureothin / IC50: K-562 cells; for increase of antiproliferative activity compared to aureothin: ratio of IC50 versus aureothin; for IC50: K562, DOA derivatives, 72 h incubation (assay inferred; table has no title), read-out: IC50. The procedure: Cells were grown in the appropiate cell culture medium supplemented with 10 mL L^-1 ultraglutamine 1 (Cambrex 17-605E/U1), 500 µL L^-1 gentamicin sulfate (CAMBREX 17-518Z), and 10% heat inactivated fetal bovine serum (PAA A15-144) at 37°C in high density polyethylene flasks (NUNC 156340).
The test substances are dissolved in DMSO before being diluted in DMEM. […] were harvested at the logarithmic growth phase after soft trypsinization, using 0.25% trypsin in PBS containing 0.02% EDTA (Biochrom KG L2163). For each experiment approximately 10,000 cells were seeded with 0.1 mL culture medium per well of the 96-well microplates (NUNC 167008).
The cells were incubated with dilutions of the test substances for 72 hours at 37°C in a humidified atmosphere and 5% CO2.
For estimating the influence of chemical compounds on cell proliferation of K-562 we determinate the numbers of viable cells present in multiwell plates via CellTiter-Blue® assay. It uses the indicator dye resazurin to measure the metabolic capacity of cells as indicator of cell viability. Viable cells of untreated control retain the ability to reduce resazurin into resorufin, which is highly fluorescent. […] Under our experimental conditions, the signal from the CellTiter-Blue® reagent is proportional to the number of viable cells.
The GI50 and CC50 values were defined as being where the concentration-response curve intersected the 50% line, compared to untreated control. These comparisons of the different values were performed with software Magellan (TECAN).
A repeat determination has been conducted in all cases.

Assay [2] relates to fungal strains like Candida albicans, Sporobolomyces salmonicolor, Penicillium notatum, Glomerella or several Aspergillus spp. The assay can be described thus: Antimicrobial / antifungal activity testing. Format: cell-based. The note with it: qualitative; compared with the other antimicrobial activities or with aureothin.

Molecules are shown by their SMILES. pIC50: −log10 of the molar value. Read-outs that look alike come from different tables or passages of the source.

A word on the pIC50: it is −log10 of the IC50, conventionally taken in molar units. For orientation: IC50 means the concentration that inhibits the measured activity by half.

On to `COc1oc(CC/C(C)=C/C(C)=C/c2ccc([N+](=O)[O-])cc2)c(C)c(=O)c1C` [Deoxyaureothin, deoxyaureothin, reference compound], for which, in assay [1] (K562, read-out: IC50 antiproliferative activity against K-562 cells), the pIC50 is 5.30. Moreover, the “increase of antiproliferative activity compared to aureothin” value in assay [1] came to 5 fold.

With `COc1oc(CC/C(C)=C/C(C)=C/c2ccc(Br)cc2)c(C)c(=O)c1C` [R = Ar-Br, p-bromo-DOA], the pIC50 in assay [1] (K562, 72 h) was 6.00. The half-inhibitory concentration (IC50) in assay [1] amounted to 0.5 µg/mL.

In turn, `COc1oc(CC/C(C)=C/C(C)=C/c2ccc(C#N)cc2)c(C)c(=O)c1C` [R = Ar-CN, deoxyaureonitrile] had a pIC50 in assay [1] (K562, 72 h) of 6.00. For the same compound, in assay [1], the IC50 came to 0.5 µg/mL and the “increase of antiproliferative activity compared to aureothin” value is “up to 25 fold”. For the same compound, in assay [2], the “effect against fungal strains” value was “activities comparable to aureothin”.

Compound `COc1oc(CC/C(C)=C/C(C)=C/c2ccc(Cl)cc2)c(C)c(=O)c1C` [R = Ar-Cl, p-chloro-DOA] gave a negative logarithm of the IC50 (pIC50) in assay [1] (K562, 72 h) of 5.70. In assay [1], the half-inhibitory concentration (IC50) turned out to be 0.8 µg/mL.

In assay [1] (K562, 72 h), `COc1oc(CC/C(C)=C/C(C)=C/c2ccc(F)cc2)c(C)c(=O)c1C` [R = Ar-F, p-fluoro-DOA] gave a pIC50 of 6.00. Besides, the IC50 in assay [1] came out at 0.5 µg/mL.

Consider `COc1oc(CC/C(C)=C/C(C)=C/c2ccc(I)cc2)c(C)c(=O)c1C` [R = Ar-I, p-iodo-DOA], for which the pIC50 in assay [1] (K562, 72 h) is 6.00. In addition, the IC50 in assay [1] came out at 0.5 µg/mL.

In turn, `COc1oc(CC/C(C)=C/C(C)=C/c2ccc3ccccc3c2)c(C)c(=O)c1C` [R = Ar-Ph, 2-naphthoate-DOA] had a negative logarithm of the IC50 (pIC50) in assay [1] (K562, 72 h) of 4.68. For the same compound, the IC50 in assay [1] was 8 µg/mL.
